These results are taken from US20070065890A1, “Method for promoting formation of facultative heterochromatin” (priority 2005, published 2007).

Test [1] relates to histone H1. The experiment in a line: In vitro deacetylation of p300-acetylated [3H]-labelled H1. The conditions noted are these: H1 acetylated by p300-HAT with [3H]-AcCoA, incubated with different amounts of SirT1; plateau reached. Type of test: biochemical. The method, then:
(§1) Detection of H1 acetylation was performed by using 4 μg of histone H1 (Upstate Biotechnology, Inc., Lake Placid, N.Y.) as an acetylated substrate for SirT1 in the NER. Deacetylation was determined by first performing a deacetylation assay using 20 and 40 μg of H1 and 6 nmol of SirT1. H1 was then isolated in the supernatant of chilled 5% perchloric acid, TCA precipitated (Albig, et al. (1998) FEBS Lett. 435:245-250), and resuspended in buffer C containing 100 mM KCl. Deacetylated H1 was then used in a subsequent NER. In vitro acetylation of H1 or recombinant H1b expressed in E. coli was carried out by incubating 10 μg H1 with 2 nmol baculovirus-generated p300 in the presence of 0.875 μCi [H^3]-Ac-CoA (Amersham, Piscataway, N.J.) in HAT buffer (75 mM Tris-HCl [pH 8.8], 135 mM NaCl). Deacetylation was carried out with the specified enzyme as above using 1 μg of the labeled Hi. […] Counts were then determined by liquid scintillation (PERKINELMER, Wellesley, Mass.) . […] In vivo H1 acetylation was analyzed by treating 293 cells for 18 hours in media containing 5 mM nicotinamide. H1 was purified as described (Albig, et al. (1998) supra) and analyzed in the NER. […]
(§2) SirT1 activity on histone H1 was directly tested in vitro. […] The same result was observed using recombinant human H1b; however, specificity was also scored in this assay using different SirT proteins.

For test [2], the target named is T1, recombinant human H1b (Homo sapiens, UniProt P10412).
T1 construct: Human histone H1b and H1° were inserted into HA-Pet30c; HA (N); made in house; host or cells: E. coli BL21 (DE3)
T1 sequence (P10412 2-219): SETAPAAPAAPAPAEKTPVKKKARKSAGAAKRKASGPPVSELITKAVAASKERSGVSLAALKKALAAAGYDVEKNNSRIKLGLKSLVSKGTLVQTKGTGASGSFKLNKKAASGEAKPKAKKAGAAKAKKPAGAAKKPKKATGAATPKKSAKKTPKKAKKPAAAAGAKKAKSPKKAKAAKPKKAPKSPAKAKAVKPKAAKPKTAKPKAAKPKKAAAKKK
The experiment in a line: In vitro deacetylation of p300-acetylated recombinant H1b by SirT proteins. Type of test: biochemical. Particulars: equal NAD+-exchange units measured using acetylated BSA as substrate. Here is the method: as §1, §2

Turning to “SirT1: Human sirtuin type 1 protein, SEQ ID NO:1; purified recombinant, baculovirus-expressed”, in test [1], the “total label in H1 released” value was “up to 70%”. In addition, in test [2], the H1b deacetylation result was “H1b deacetylation is specific for SirT1”.
